In ChEMBL document CHEMBL5724914, “Linking interpersonal differences in gut microbiota composition and drug biotransformation activity” (2024):

Legend:
[1] = (§1) The drug is tested on WLS-038 corresponding to human gut metagenome with ENA study accession number: PRJEB37062 and ENA sample accession number: ERS12561745 for biotransformation under anaerobic condition. The drug concentrations were measured over 9 timepoints collected between 0 and 24 hours of incubation by liquid-chromatography-coupled mass spectrometry (LC–MS); conditions: 2 µM
[2] = human gut metagenome, 24 h, 2 µM
[3] = as §1, with “Z-008” for “WLS-038”, “to” for “to human gut”, “ERS12561808” for “ERS12561745”; conditions: 2 µM
[4] = as §1, with “Z-025” for “WLS-038”, “rabbit” for “human”, “ERS12561824” for “ERS12561745”; conditions: 2 µM
[5] = as §1, with “WLS-240” for “WLS-038”, “ERS12561773” for “ERS12561745”; conditions: 2 µM
[6] = as §1, with “Z-003” for “WLS-038”, “pig” for “human”, “ERS12561803” for “ERS12561745”; conditions: 2 µM
[7] = as §1, with “WLS-077” for “WLS-038”, “ERS12561750” for “ERS12561745”; conditions: 2 µM
[8] = human gut metagenome, 24 h, 2 µM; remark: listed apart in the source
[9] = as §1, with “Z-016” for “WLS-038”, “mouse” for “human”, “ERS12561815” for “ERS12561745”; conditions: 2 µM
[10] = human gut metagenome, 24 h, 2 µM; remark: listed apart in the source
[11] = as §1, with “Z-022” for “WLS-038”, “mouse” for “human”, “ERS12561821” for “ERS12561745”; conditions: 2 µM
[12] = human gut metagenome, 24 h, 2 µM; remark: listed apart in the source
[13] = human gut metagenome, 24 h, 2 µM; remark: listed apart in the source
[14] = human gut metagenome, 24 h, 2 µM; remark: listed apart in the source
[15] = human gut metagenome, 24 h, 2 µM; remark: listed apart in the source
[16] = as §1, with “Z-004” for “WLS-038”, “to” for “to human gut”, “ERS12561804” for “ERS12561745”; conditions: 2 µM
[17] = human gut metagenome, 24 h, 2 µM; remark: listed apart in the source
[18] = human gut metagenome, 24 h, 2 µM; remark: listed apart in the source
[19] = as §1, with “WLS-350” for “WLS-038”, “ERS12561789” for “ERS12561745”; conditions: 2 µM
[20] = human gut metagenome, 24 h, 2 µM; remark: listed apart in the source
Note: call rule not given here.

Row | SMILES | Bacterial Biotransformation [1] | Bacterial Biotransformation [2] | Bacterial Biotransformation [3] | Bacterial Biotransformation [4] | Bacterial Biotransformation [5] | Bacterial Biotransformation [6] | Bacterial Biotransformation [7] | Bacterial Biotransformation [8] | Bacterial Biotransformation [9] | Bacterial Biotransformation [10] | Bacterial Biotransformation [11] | Bacterial Biotransformation [12] | Bacterial Biotransformation [13] | Bacterial Biotransformation [14] | Bacterial Biotransformation [15] | Bacterial Biotransformation [16] | Bacterial Biotransformation [17] | Bacterial Biotransformation [18] | Bacterial Biotransformation [19] | Bacterial Biotransformation [20]
1 | O=C(CCCN1CCC2(CC1)C(=O)NCN2c1ccccc1)c1ccc(F)cc1 [SPIPERONE] | Compound NOT metabolized | Compound metabolized | Compound NOT metabolized | Compound NOT metabolized | Compound NOT metabolized | Compound NOT metabolized | Compound NOT metabolized | Compound NOT metabolized | Compound NOT metabolized | Compound NOT metabolized | Compound NOT metabolized | Compound metabolized | Compound NOT metabolized | Compound metabolized | Compound NOT metabolized | Compound NOT metabolized | Compound NOT metabolized | Compound metabolized | Compound NOT metabolized | Compound NOT metabolized
2 | O=C1C(CC[S+]([O-])c2ccccc2)C(=O)N(c2ccccc2)N1c1ccccc1 (stereo not given) [SULFINPYRAZONE] | Compound metabolized | Compound metabolized | Compound metabolized | Compound NOT metabolized | Compound metabolized | Compound metabolized | Compound metabolized | Compound metabolized | Compound NOT metabolized | Compound metabolized | Compound NOT metabolized | Compound metabolized | Compound metabolized | Compound metabolized | Compound metabolized | Compound NOT metabolized | Compound metabolized | Compound metabolized | Compound metabolized | Compound metabolized
3 | CCOc1ccccc1OCCN[C@H](C)Cc1ccc(OC)c(S(N)(=O)=O)c1.Cl [TAMSULOSIN HYDROCHLORIDE] | Compound NOT metabolized | Compound NOT metabolized | Compound NOT metabolized | Compound NOT metabolized | Compound NOT metabolized | Compound metabolized | Compound NOT metabolized | Compound NOT metabolized | Compound NOT metabolized | Compound NOT metabolized | Compound NOT metabolized | Compound NOT metabolized | Compound NOT metabolized | Compound NOT metabolized | Compound NOT metabolized | Compound NOT metabolized | Compound NOT metabolized | Compound NOT metabolized | Compound NOT metabolized | Compound NOT metabolized
4 | COc1cc2nc(N3CCN(C(=O)C4CCCO4)CC3)nc(N)c2cc1OC (stereo not given) [TERAZOSIN] | Compound NOT metabolized | Compound NOT metabolized | Compound NOT metabolized | Compound NOT metabolized | Compound metabolized | Compound NOT metabolized | Compound NOT metabolized | Compound metabolized | Compound NOT metabolized | Compound NOT metabolized | Compound NOT metabolized | Compound NOT metabolized | Compound NOT metabolized | Compound metabolized | Compound NOT metabolized | Compound NOT metabolized | Compound NOT metabolized | Compound metabolized | Compound NOT metabolized | Compound NOT metabolized
5 | c1ccc2[nH]c(-c3cscn3)nc2c1 [THIABENDAZOLE] | Compound NOT metabolized | Compound NOT metabolized | Compound NOT metabolized | Compound NOT metabolized | Compound metabolized | Compound NOT metabolized | Compound NOT metabolized | Compound NOT metabolized | Compound NOT metabolized | Compound NOT metabolized | Compound NOT metabolized | Compound NOT metabolized | Compound NOT metabolized | Compound NOT metabolized | Compound NOT metabolized | Compound NOT metabolized | Compound NOT metabolized | Compound metabolized | Compound NOT metabolized | Compound NOT metabolized
6 | CCN(CC)CCNC(=O)c1cc(S(C)(=O)=O)ccc1OC [TIAPRIDE] | Compound NOT metabolized | Compound NOT metabolized | Compound NOT metabolized | Compound NOT metabolized | Compound metabolized | Compound metabolized | Compound NOT metabolized | Compound metabolized | Compound NOT metabolized | Compound NOT metabolized | Compound NOT metabolized | Compound NOT metabolized | Compound NOT metabolized | Compound metabolized | Compound NOT metabolized | Compound NOT metabolized | Compound NOT metabolized | Compound metabolized | Compound NOT metabolized | Compound metabolized
7 | CC(C)(C)NC[C@H](O)COc1nsnc1N1CCOCC1.O=C(O)/C=C\C(=O)O [TIMOLOL MALEATE] | Compound NOT metabolized | Compound NOT metabolized | Compound NOT metabolized | Compound NOT metabolized | Compound NOT metabolized | Compound NOT metabolized | Compound NOT metabolized | Compound NOT metabolized | Compound NOT metabolized | Compound NOT metabolized | Compound NOT metabolized | Compound NOT metabolized | Compound NOT metabolized | Compound NOT metabolized | Compound NOT metabolized | Compound NOT metabolized | Compound NOT metabolized | Compound NOT metabolized | Compound NOT metabolized | Compound NOT metabolized
8 | CC[C@@]1(O)C(=O)OCc2c1cc1n(c2=O)Cc2cc3c(CN(C)C)c(O)ccc3nc2-1 [TOPOTECAN] | Compound NOT metabolized | Compound NOT metabolized | Compound NOT metabolized | Compound NOT metabolized | Compound NOT metabolized | Compound NOT metabolized | Compound NOT metabolized | Compound NOT metabolized | Compound NOT metabolized | Compound NOT metabolized | Compound NOT metabolized | Compound NOT metabolized | Compound NOT metabolized | Compound NOT metabolized | Compound NOT metabolized | Compound NOT metabolized | Compound NOT metabolized | Compound NOT metabolized | Compound NOT metabolized | Compound NOT metabolized
